Experimental data as given in patent EP1247803A2, “Indolinone compounds suitable for modulation of protein kinases” (Sugen, Inc., priority 1996, dated 1998).

Assays:
[1] = molecular target: T1, FLK-1 receptor (Mus musculus, UniProt P35918); assay: FLK-1 ELISA (kinase activity of the FLK-1 receptor in FLK-1/NIH3T3 cells, VEGF stimulated); type: cell-based; set-up: concentration or dose not given beside the values
T1 construct: expressed in transfected cells; host or cells: NIH3T3 C7#3
Procedure, shortened: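 FLK-1-expressing NIH3T3 C7#3 cells, starved overnight in 0.1% FBS medium, were treated with compounds at a 1:200 final dilution (0.5% DMSO) for 2 h at 37 °C, with VEGF stimulation. FLK-1 kinase activity was read by ELISA on anti-rabbit IgG plates using affinity-purified anti-FLK-1 antiserum.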

[2] = system: MET; assay: MET biochemical kinase assay; set-up: species or system human; concentration or dose not given beside the values
Procedure, shortened: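 Lysate-derived MET, or chimeric receptors, is immobilised on plates through an antibody to the human MET cytoplasmic region. Compounds are added along with kinase buffer supplying ATP and divalent metal ions, and receptor autophosphorylation is quantified by anti-phosphotyrosine ELISA.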

[3] = molecular target: PDGF-R (Homo sapiens, UniProt P09619); assay: PDGF-R ELISA; type: cell-based
Description: A PDGF-R ELISA is described in International Patent Publication No. WO 96/40116, published December 19, 1996 by Tang et al.

T1 sequence (P35918 20-1345): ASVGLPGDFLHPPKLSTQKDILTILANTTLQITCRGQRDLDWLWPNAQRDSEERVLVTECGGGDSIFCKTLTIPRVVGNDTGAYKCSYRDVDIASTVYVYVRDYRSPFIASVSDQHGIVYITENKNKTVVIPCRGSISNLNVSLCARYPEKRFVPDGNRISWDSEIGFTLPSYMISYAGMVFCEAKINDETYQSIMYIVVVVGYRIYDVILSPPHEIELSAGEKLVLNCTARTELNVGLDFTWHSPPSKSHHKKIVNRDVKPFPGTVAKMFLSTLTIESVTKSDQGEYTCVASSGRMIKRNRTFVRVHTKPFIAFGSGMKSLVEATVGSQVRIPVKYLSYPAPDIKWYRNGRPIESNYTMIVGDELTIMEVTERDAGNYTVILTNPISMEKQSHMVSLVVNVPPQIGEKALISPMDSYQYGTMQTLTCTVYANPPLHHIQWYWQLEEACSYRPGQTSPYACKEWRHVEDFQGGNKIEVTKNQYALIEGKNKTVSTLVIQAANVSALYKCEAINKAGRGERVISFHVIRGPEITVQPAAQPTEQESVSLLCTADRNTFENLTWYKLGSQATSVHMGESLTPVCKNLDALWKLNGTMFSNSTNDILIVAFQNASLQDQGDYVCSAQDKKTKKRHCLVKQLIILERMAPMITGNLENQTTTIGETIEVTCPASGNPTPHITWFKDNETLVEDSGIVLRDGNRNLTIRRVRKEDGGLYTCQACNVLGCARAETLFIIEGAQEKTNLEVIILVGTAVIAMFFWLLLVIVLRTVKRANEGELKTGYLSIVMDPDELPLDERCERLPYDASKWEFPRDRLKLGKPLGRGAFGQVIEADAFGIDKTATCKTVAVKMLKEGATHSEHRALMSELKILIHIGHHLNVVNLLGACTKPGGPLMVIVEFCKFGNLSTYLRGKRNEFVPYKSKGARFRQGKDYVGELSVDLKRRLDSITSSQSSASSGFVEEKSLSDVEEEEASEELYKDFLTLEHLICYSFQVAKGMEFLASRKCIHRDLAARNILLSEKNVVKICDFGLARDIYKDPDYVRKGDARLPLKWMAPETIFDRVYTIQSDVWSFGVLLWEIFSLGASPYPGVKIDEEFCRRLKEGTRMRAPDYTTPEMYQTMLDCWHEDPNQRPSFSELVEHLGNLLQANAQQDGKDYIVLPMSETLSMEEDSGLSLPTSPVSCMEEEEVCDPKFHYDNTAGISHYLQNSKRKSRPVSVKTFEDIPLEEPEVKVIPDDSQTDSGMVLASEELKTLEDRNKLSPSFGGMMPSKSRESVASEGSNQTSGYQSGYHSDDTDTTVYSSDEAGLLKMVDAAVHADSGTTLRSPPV
PDGF-R, sequence (P09619 33-1106, species assumed): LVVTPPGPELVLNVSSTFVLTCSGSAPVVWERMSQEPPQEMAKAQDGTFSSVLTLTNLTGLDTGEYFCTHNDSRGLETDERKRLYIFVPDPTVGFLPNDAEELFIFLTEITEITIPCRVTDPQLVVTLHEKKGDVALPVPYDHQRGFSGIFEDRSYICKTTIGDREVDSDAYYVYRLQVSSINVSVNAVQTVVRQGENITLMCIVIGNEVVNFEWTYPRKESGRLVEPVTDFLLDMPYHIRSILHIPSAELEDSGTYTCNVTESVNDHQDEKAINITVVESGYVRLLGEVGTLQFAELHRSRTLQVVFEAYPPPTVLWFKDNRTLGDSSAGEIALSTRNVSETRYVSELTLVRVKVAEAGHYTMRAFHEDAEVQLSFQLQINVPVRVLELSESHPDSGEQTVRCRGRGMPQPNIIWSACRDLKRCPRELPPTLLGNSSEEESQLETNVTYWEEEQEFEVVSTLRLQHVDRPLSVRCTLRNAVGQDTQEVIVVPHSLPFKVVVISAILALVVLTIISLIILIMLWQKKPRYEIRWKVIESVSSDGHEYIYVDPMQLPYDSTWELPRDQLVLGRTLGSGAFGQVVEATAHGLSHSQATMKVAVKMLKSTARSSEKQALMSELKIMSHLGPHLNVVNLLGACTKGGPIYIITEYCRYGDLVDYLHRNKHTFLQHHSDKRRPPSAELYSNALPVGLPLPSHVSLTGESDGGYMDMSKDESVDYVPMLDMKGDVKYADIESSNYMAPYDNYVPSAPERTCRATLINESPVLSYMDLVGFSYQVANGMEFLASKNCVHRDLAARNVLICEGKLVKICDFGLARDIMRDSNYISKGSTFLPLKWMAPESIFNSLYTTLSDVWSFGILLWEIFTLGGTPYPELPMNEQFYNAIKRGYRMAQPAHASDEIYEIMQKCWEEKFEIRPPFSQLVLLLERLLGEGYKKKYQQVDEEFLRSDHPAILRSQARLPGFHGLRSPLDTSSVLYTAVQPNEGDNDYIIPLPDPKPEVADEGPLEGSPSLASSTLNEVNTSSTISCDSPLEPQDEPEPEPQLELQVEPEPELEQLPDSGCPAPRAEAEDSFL

| SMILES | Fik Kinase %Inhibition [1] | Met Kinase % Inhibition [2] | PDGF Kinase %Inhibition [3] |
| --- | --- | --- | --- |
| COc1cccc(O)c1C=C1C(=O)Nc2c(Br)cc(Br)cc21 [10717/A10] | -3.3% | 71.6% | – |
| CNS(=O)(=O)c1ccc2c(c1)C(=Cc1c(C)[nH]c(C(=O)OC)c1C(=O)OC)C(=O)N2 [10718/D07] | 7.8% | 26.1% | – |
| CNS(=O)(=O)c1ccc2c(c1)C(=Cc1ccc(Cl)c([N+](=O)[O-])c1)C(=O)N2 [10718/D08] | 3.9% | 2.3% | – |
| CNS(=O)(=O)c1ccc2c(c1)C(=Cc1ccc(O)c(C)c1O)C(=O)N2 [10718/D09] | -9.1% | 9.9% | – |
| CNS(=O)(=O)c1ccc2c(c1)C(=Cc1ccco1)C(=O)N2 [10718/D10] | 15.0% | 55.3% | – |
| CNS(=O)(=O)c1ccc2c(c1)C(=Cc1ccc([N+](=O)[O-])o1)C(=O)N2 [10718/D11] | 13.3% | 11.3% | – |
| CCOC(=O)c1c(C)[nH]c(C=C2C(=O)Nc3ccc(S(=O)(=O)Nc4ccc(C(F)(F)F)cc4)cc32)c1C [10718/E02] | 19.7% | 46.3% | – |
| COc1cc(Br)c(O)c(C=C2C(=O)Nc3ccc(S(=O)(=O)Nc4ccc(C(F)(F)F)cc4)cc32)c1 [10718/E03] | 10.0% | 95.3% | – |
| CNS(=O)(=O)c1ccc2c(c1)C(=Cc1cc(I)c(OC)c(C(C)(C)C)c1)C(=O)N2 [10732/D11] | 18.8% | 48.6% | 18.9% |
| O=C1Nc2ccc(S(=O)(=O)Nc3ccc(C(F)(F)F)cc3)cc2C1=CC(c1cccs1)C(F)(F)F (stereo not shown) [10732/E02] | 13.1% | 33.3% | 4.8% |
| COc1c(C(C)C)cc(C=C2C(=O)Nc3ccc(S(=O)(=O)Nc4ccc(C(F)(F)F)cc4)cc32)cc1C(C)C [10732/E03] | 16.7% | 3.9% | 48.7% |
| CC(C)c1cc(C=C2C(=O)Nc3ccc(S(=O)(=O)Nc4ccc(C(F)(F)F)cc4)cc32)cc(C(C)C)c1Oc1ccccc1 [10732/E04] | 15.8% | 8.2% | 29.5% |
| COc1ccc(C=C2C(=O)Nc3ccc(S(=O)(=O)Nc4ccc(C(F)(F)F)cc4)cc32)cc1C(C)(C)C [10732/E05] | 18.7% | 2.2% | 41.1% |
| CC(C)(C)c1cc(C=C2C(=O)Nc3ccc(S(=O)(=O)Nc4ccc(C(F)(F)F)cc4)cc32)ccc1OCc1ccccc1 [10732/E06] | 2.8% | -2.1% | 16.9% |
| COc1c(Br)cc(C=C2C(=O)Nc3ccc(S(=O)(=O)Nc4ccc(C(F)(F)F)cc4)cc32)cc1C(C)(C)C [10732/E07] | 21.3% | 15.2% | 42.2% |
| CC(C)(C)c1cc(C=C2C(=O)Nc3ccc(S(=O)(=O)Nc4ccc(C(F)(F)F)cc4)cc32)cc(Br)c1OCc1ccccc1 [10732/E08] | 13.6% | 29.4% | 32.6% |
| COc1c(Cl)cc(C=C2C(=O)Nc3ccc(S(=O)(=O)Nc4ccc(C(F)(F)F)cc4)cc32)cc1C(C)(C)C [10732/E09] | 15.3% | 18.1% | 46.7% |
| CC(C)(C)c1cc(C=C2C(=O)Nc3ccc(S(=O)(=O)Nc4ccc(C(F)(F)F)cc4)cc32)cc(Cl)c1OCc1ccccc1 [10732/E10] | 16.7% | 1.6% | 35.6% |
| COc1c(I)cc(C=C2C(=O)Nc3ccc(S(=O)(=O)Nc4ccc(C(F)(F)F)cc4)cc32)cc1C(C)(C)C [10732/E11] | 16.2% | 41.4% | 47.7% |

| SMILES | Fik Kinase %Inhibition [1] | Met Kinase % Inhibition [2] | PDGF Kinase %Inhibition [3] |
| --- | --- | --- | --- |
| O=C1Nc2ccc(S(=O)(=O)N3CCOCC3)cc2C1=CC(c1cccs1)C(F)(F)F (stereo not shown) [10732/F02] | 7.0% | 55.6% | -9.4% |
| COc1c(C(C)C)cc(C=C2C(=O)Nc3ccc(S(=O)(=O)N4CCOCC4)cc32)cc1C(C)C [10732/F03] | 31.9% | 68.6% | 51.8% |
| CC(C)c1cc(C=C2C(=O)Nc3ccc(S(=O)(=O)N4CCOCC4)cc32)cc(C(C)C)c1Oc1ccccc1 [10732/F04] | 16.2% | 57.2% | 23.5% |
| COc1ccc(C=C2C(=O)Nc3ccc(S(=O)(=O)N4CCOCC4)cc32)cc1C(C)(C)C [10732/F05] | 37.3% | 58.9% | 12.8% |
| CC(C)(C)c1cc(C=C2C(=O)Nc3ccc(S(=O)(=O)N4CCOCC4)cc32)ccc1OCc1ccccc1 [10732/F06] | 11.6% | 45.7% | 0.2% |
| COc1c(Br)cc(C=C2C(=O)Nc3ccc(S(=O)(=O)N4CCOCC4)cc32)cc1C(C)(C)C [10732/F07] | 31.0% | 65.5% | 38.6% |
| CC(C)(C)c1cc(C=C2C(=O)Nc3ccc(S(=O)(=O)N4CCOCC4)cc32)cc(Br)c1OCc1ccccc1 [10732/F08] | 12.6% | 76.6% | 14.9% |
| COc1c(Cl)cc(C=C2C(=O)Nc3ccc(S(=O)(=O)N4CCOCC4)cc32)cc1C(C)(C)C [10732/F09] | 25.6% | 79.7% | 25.5% |
| CC(C)(C)c1cc(C=C2C(=O)Nc3ccc(S(=O)(=O)N4CCOCC4)cc32)cc(Cl)c1OCc1ccccc1 [10732/F10] | 14.1% | 65.1% | 15.9% |
| COc1c(I)cc(C=C2C(=O)Nc3ccc(S(=O)(=O)N4CCOCC4)cc32)cc1C(C)(C)C [10732/F11] | 21.9% | 75.2% | 77.5% |
| O=C1Nc2ccc(CCCl)cc2C1=CC(c1cccs1)C(F)(F)F (stereo not shown) [10732/G02] | 8.1% | 39.5% | 10.3% |
| COc1c(C(C)C)cc(C=C2C(=O)Nc3ccc(CCCl)cc32)cc1C(C)C [10732/G03] | 0.8% | 38.1% | 36.1% |
| CC(C)c1cc(C=C2C(=O)Nc3ccc(CCCl)cc32)cc(C(C)C)c1Oc1ccccc1 [10732/G04] | 12.6% | 24.9% | 25.0% |
| COc1ccc(C=C2C(=O)Nc3ccc(CCCl)cc32)cc1C(C)(C)C [10732/G05] | 17.2% | 15.2% | 15.4% |
| CC(C)(C)c1cc(C=C2C(=O)Nc3ccc(CCCl)cc32)ccc1OCc1ccccc1 [10732/G06] | 26.5% | 16.2% | 0.2% |
| COc1c(Br)cc(C=C2C(=O)Nc3ccc(CCCl)cc32)cc1C(C)(C)C [10732/G07] | 4.6% | 23.9% | 21.4% |
| CC(C)(C)c1cc(C=C2C(=O)Nc3ccc(CCCl)cc32)cc(Br)c1OCc1ccccc1 [10732/G08] | 10.0% | 44.7% | 37.6% |
| COc1c(Cl)cc(C=C2C(=O)Nc3ccc(CCCl)cc32)cc1C(C)(C)C [10732/G09] | 16.9% | 33.9% | 9.8% |
| CC(C)(C)c1cc(C=C2C(=O)Nc3ccc(CCCl)cc32)cc(Cl)c1OCc1ccccc1 [10732/G10] | 14.0% | 45.7% | 20.4% |
